# According to patent US20150057354A1, “METHOD OF MAINTAINING OR IMPROVING TACTICAL PERFORMANCE AND COGNITIVE FUNCTION THROUGH DIETARY SUPPLEMENTATION” (Natural Alternatives International, Inc., priority 2013, published 2015):
# Read-outs that look alike come from different tables or passages of the source.
# What was measured:
# [1] = for High Running Velocity (>4.4 m · sec^−1): distance run at high velocity; for Low-Moderate Running Velocity (<4.4 m · sec^−1): distance run at low to moderate velocity
# From the text: Twenty male soldiers from a special operations unit of the Israel Defense Force (IDF) volunteered to participate in this study to examine the effect of 28 days of beta-alanine ingestion on physical, tactical, psychomotor and cognitive performance in military personnel. Following an explanation of all procedures, risks and benefits, each participant provided their informed consent to participate in the study. The Helsinki committee of the IDF Medical Corps approved the research protocol. […] Screening for performance enhancing drug use and additional supplementation was accomplished via a health questionnaire completed during participant recruitment. All participants were from the same unit, but were from three different squads. Volunteers from each squad were randomly assigned to one of two groups. The first group; (BA; 20.1±0.7 years; height: 1.79±0.07 m; weight: 78.3±9.7 kg) consumed 6.0 g of β-alanine per day, while the second group (PL; 20.2±1.1 years; height: 1.80±0.05; weight: 79.6±7.8 kg) consumed 6 g of placebo (rice flour). There were an equal number of participants from each squad that were randomly assigned to either BA or PL.
# (§1) Each session required all participants to perform a 4 km run dressed in shorts, T-shirt and running shoes. Immediately following the 4 km run, participants performed five countermovement jumps.
# All participants were provided with an individual global positioning system (GPS) that they wore in a vest underneath their shirt. The GPS unit (MinimaxX, V4.3, Catapult Innovations, Victoria, Australia) was positioned in a posterior pocket on the vest situated between the participant's right and left scapula in the upper-thoracic spine region. Information on velocity patterns was recorded during the 4 km run. Peak velocity, mean velocity, distance covered running at slow-moderate speed (<4.44 m·sec-1), distance covered running at high speed (4.44+m·sec-1), and the percent of total distance run at slow-moderate and high speeds were downloaded from the GPS receiver/transmitters. Data was collected at 10 Hz and all analysis was performed with the system software provided by the manufacturer.
# (§2) Participants in the supplement group were provided with 2 tablets of sustained-release β-alanine at a dose of 2 g per serving three times per day (total β-alanine intake was 6 g per day) and subjects in the placebo group were provided with an equivalent amount of rice powder. […] Supplementation occurred over a 28 day period.
# Data were analyzed using a 2×2 [treatment (BA, PL) X time (pretest, posttest)] mixed factorial ANOVA.
# [2] = From the text: as §1
# Targets were set at a 40-m distance from the firing line and were all headshots. Each shot that hit the target was considered accurate. Twenty targets were set up on the range. All participants were notified prior to the start of data collection which target they were required to shoot at. Immediately following the 120-m sprint, participants continued onto the shooting range and shot 5 times while standing and 5 times from a kneeling position with their assault rifle. Participants were requested to shoot rapidly and accurately. While shooting, each participant was required to handle a misfire in their weapon. The misfire was prearranged by the investigative team, which involved placing an empty bullet into weapon's magazine (weapon's ammunition storage and feeding device). This required the participant to recognize and correct the misfire and continue to deliver fire at the designated target. The designed misfire was set to increase the stress of the shooting, with the participants already fatigued from the 4 km run, jumps and sprint with full gear. The number of accurate shots and the time required to perform these shots was recorded.
# as §2
# [3] = Pre to Post; p=0.844, ES=0.003
# From the text: as §1, §2
# [4] = 2.5 km run
# From the text: (§3) Eighteen male soldiers from an elite combat unit volunteered to participate in this double-blind study. […] Screening for performance enhancing drug use and additional supplementation was accomplished via a health questionnaire completed during participant recruitment. Participants were from the same unit, but were from three different squads. Volunteers from each squad were randomly assigned to one of two groups. The randomization procedure involved that each volunteer from the same squad to be alternatively assigned to each group. […] The first group (BA; age 19.6±0.5 years; height: 1.76±0.05 m; body mass: 72.1±4.5 kg) consumed 6.0 g of β-alanine per day, while the second group (PL; age 20.2±1.0 years; height: 1.79±0.08; body mass: 76.4±6.1 kg) consumed 6 g of placebo (rice flour). During the 30-day study period all participants from all squads participated in the same advanced military training tasks that included combat skill development, physical work under pressure, navigational training, self-defense/hand-to-hand combat and conditioning.
# (§4) Data collection occurred before (PRE) and following (POST) 30 days of supplementation. During each session participants performed military relevant tasks that included a 2.5 km run, a 1-min sprint, and a 50-m casualty carry. In addition, participants performed repeated 30-m sprints in combat gear (combat vest with ammunition, helmet, and assault rifle). Between each sprint soldiers were tested on marksmanship. Immediately following the final sprint and target shooting, participants performed a 2-min serial subtraction test on the firing range to assess cognitive function under stressful conditions (continuous shooting). These assessments were based upon previously published investigations examining military performance responses during stressful conditions (Nindl, Leone et al. 2002, Harman, Gutekunst et al. 2008).
# (§5) These tests simulated a rapid approach to the battlefield. […] During the run and sprint all participants were dressed in shorts, T-shirt and running shoes. Both the run and sprint were performed on an asphalt road. All participants were provided with an individual global positioning system (GPS) that they wore in a vest underneath their shirt. The GPS unit (MinimaxX, V4.3, Catapult Innovations, Victoria, Australia) was positioned in a posterior pocket on the vest situated between the participant's right and left scapula in the upper-thoracic spine region. Information on velocity patterns was recorded during the 2.5 run, as well as total distance run during the 1-min sprint. During the 2.5 km run the velocity of the run was divided into three operationally distinct thresholds and defined as low speed (2.50 m˜s^−1-3.60 m˜s^−1), moderate speed (3.61 m·s^−1-4.43 m·s^−1) or high speed (>4.44 m·sec^−1). In addition, the average velocity and average heart rate during the 2.5 km run were also downloaded from the GPS receiver/transmitters.
# (§6) Participants in the supplement group were provided with 2 tablets of sustained-release β-alanine at a dose of (2 g per serving) three times per day (total β-alanine intake was 6 g per day) and subjects in the placebo group were provided with an equivalent amount of rice powder. Participants were instructed to consume the supplement following their meals with water. […] Supplementation occurred every day over a 30-day period.
# [5] = 1-min Sprint
# Procedure: as §4, §5
# During the 1-min sprint peak velocity, average velocity, total distance, total distance within 90% of peak velocity, and percent decline was downloaded from the GPS receiver/transmitters. All data were collected at 10 Hz and all analyses were performed with the system software provided by the manufacturer.
# as §6
# [6] = for Average Sprint Time / Fatigue rate: Repeat 30-m Sprints
# Procedure: as §4, §6
# [7] = 30 days, 6 g per day, sustained-release tablets
# From the text: as §3
# Participants in the supplement group were provided with 2 tablets of sustained-release β-alanine at a dose of (2 g per serving) three times per day (total β-alanine intake was 6 g per day) and subjects in the placebo group were provided with an equivalent amount of rice powder. […]
# [8] = 30 days, 6 g per day; p=0.048
# Procedure: Carnosine content of all participants was assessed by proton magnetic resonance spectroscopy (MRS) in the gastrocnemius muscle. All studies were performed on a 3-T system (Ingenia, Philips Medical Systems, Best, The Netherlands). Single-voxel, STEAM acquisitions of the gastrocnemius medialis muscle of the lower leg were carried out using a transmit-receive (16-channel) coil. In the leg the scan parameters were TR/TM/TE=2000/12/13 ms. Second-order shimming was used giving a full-width-half-maximum line width of approximately 25 Hz in the calf muscle. Water suppression was achieved by applying two bandwidth selective rf pulses. […] The spectra were analyzed using the Philips SpectroView software.
# A 1-litre solution of 20 mM L-carnosine (Sigma-Aldrich) in 0.1M potassium phosphate buffer (pH=7.2) was used as an external reference phantom for absolute quantification. […]
# The T1, T2 values for the phantom and muscle were taken from Baguet and colleagues (2010). The correction for the coil loading was calculated according to the method previously described (Soher, van Zijl et al. 1996).
# Data was analyzed using a 2×2 [treatment (BA, PL) X time (PRE, POST)] repeated measures analysis of variance. […] POST-PRE (A) performance changes were analyzed using an unpaired t test. […] As such, comparisons A carnosine content was analyzed using the non-parametric independent samples median test. […]
# [9] = four weeks of ingestion, dosages similar to the present one (Hill et al., 2007); cited from earlier work
# [10] = β-alanine taken as a free amino acid; some individuals; cited from earlier work
# [11] = Study 1: vertical jump power (five countermovement jumps) after 4-km run; conditions: at Post
# [12] = 4-km run, POST (28 days, 6 g per day)
smiles,measurement,setting,value
"NCCC(=O)O [BA, β-alanine]",% Distance run at High Running Velocity,"[1]; 4-km run, POST",25.4 ± 18.0%
same,% Distance run at Low to Moderate Running Velocity,"[1]; 4-km run, POST",74.3 ± 18.3%
same,Average Velocity,[1]; [12],4.13 ± 0.27 m · sec^−1
same,Peak Velocity,[1]; [12],5.46 ± 0.26 m · sec^−1
same,% Distance run at High Running Velocity,"[1]; 4-km run, PRE",29.3 ± 16.1%
same,% Distance run at Low to Moderate Running Velocity,"[1]; 4-km run, PRE",70.8 ± 16.2%
same,Average Velocity,"[1]; 4-km run, PRE",4.25 ± 0.22 m · sec^−1
same,Peak Velocity,"[1]; 4-km run, PRE (before supplementation), mean ± SD",5.84 ± 0.63 m · sec^−1
same,difference between BA and PL in the distance run at a high velocity,"[1]; 4-km run, Post, not statistically significant",34.9%
same,High Running Velocity (>4.4 m · sec^−1),"[1]; 4-km run, POST",1009 ± 675
same,High Running Velocity (>4.4 m · sec^−1),"[1]; 4-km run, PRE",1166 ± 610
same,Low-Moderate Running Velocity (<4.4 m · sec^−1),"[1]; 4-km run, POST",2957 ± 672
same,Low-Moderate Running Velocity (<4.4 m · sec^−1),"[1]; 4-km run, PRE",2811 ± 605
same,4K Run Time,[1]; POST,962.6 ± 65.0 s
same,4K Run Time,[1]; PRE,942.4 ± 39.3 s
same,difference between the groups in time to perform 10 shots,"[2]; BA faster than PL, not statistically different",24.8%
same,time to perform 10 shots,"[2]; Post, PL 37.7±13.9 sec, p=0.161",30.2 ± 5.8 s
same,number of shots on target,"[2]; at Post, of 10 shots, 40-m targets, p=0.012 vs PL",8.2±1.0
same,"serial subtraction test, BA vs PL",[3],no significant interactions
same,Average Heart Rate,[4]; POST,165.7 ± 6.1 beats · min^−1
same,Average Velocity,[4]; POST,4.09 ± 0.25 m · s^−1
same,Distance Run at High Intensity,[4]; POST,23.9 ± 20.1%
same,Distance Run at Low Intensity,[4]; POST,10.7 ± 14.0%
same,Distance Run at Moderate Intensity,[4]; POST,65.1 ± 14.8%
same,Time,"[4]; POST (30 days, 6 g per day)",629 ± 23.8 s
same,Average Heart Rate,[4]; PRE,156.8 ± 15.5 beats · min^−1
same,Average Velocity,[4]; PRE,3.97 ± 0.17 m · s^−1
same,Distance Run at High Intensity,[4]; PRE,18.4 ± 12.4%
same,Distance Run at Low Intensity,[4]; PRE,12.3 ± 12.0%
same,Distance Run at Moderate Intensity,[4]; PRE,69.8 ± 12.1%
same,Time,[4]; PRE,624 ± 22.6 s
same,Average Velocity,[5]; POST,5.09 ± 0.36 m · s^−1
same,Distance Run at 90% Peak Velocity,[5]; POST,58.5 ± 7.7
same,Fatigue rate,[5]; POST,30.9 ± 6.7%
same,Peak Velocity,[5]; POST,6.57 ± 0.18 m · s^−1
same,total distance run,[5]; POST,302.4±21.2 m
same,Average Velocity,[5]; PRE,5.21 ± 0.28 m · s^−1
same,Distance Run at 90% Peak Velocity,[5]; PRE,69.5 ± 4.1
same,Fatigue rate,[5]; PRE,32.5 ± 5.5%
same,Peak Velocity,[5]; PRE,6.68 ± 0.36 m · s^−1
same,total distance run,[5]; PRE,310.0±16.7 m
same,Δ time for the 50-m casualty carry vs PL,"[6]; 30 days, 6 g per day, p=0.044",significantly (p=0.044) improved
same,serial subtraction test under stress vs placebo,"[6]; 30 days, p=0.022",significantly improve performance
same,Average Sprint Time,[6]; POST,8.00 ± 0.29 s
same,Fatigue rate,[6]; POST,91.8 ± 3.0%
same,Average Sprint Time,[6]; PRE,7.42 ± 0.24 s
same,Fatigue rate,[6]; PRE,91.6 ± 4.8%
same,adverse events,[7],No adverse events were reported
same,Δ carnosine content within the gastrocnemius muscle vs PL,[8],Significant elevations
same,elevation of muscle carnosine concentrations,[9],60%
same,duration of flushing/tingling of the skin,[10],less than 60 minutes
same,vertical jump relative mean power,[11],14.1±1.7 w·kg-1
same,vertical jump relative peak power vs PL,"[11]; p=0.034, ES=0.27",significantly greater
same,"relative mean power, percent greater than PL","[11]; p=0.139, ES 0.14",10.2%
